The values that follow come from ChEMBL document CHEMBL1177845, “Efficient synthesis and identification of novel propane-1,3-diamino bridged CCR5 antagonists with variation on the basic center carrier” (Eur J Med Chem, 2010).

Assay [1] has as its target T1, C-C chemokine receptor type 5 (Homo sapiens, UniProt P51681). Description: Antagonist activity at CCR5 expressed in CHO cells assessed as inhibition of RANTES-stimulated GTPgammaS binding at 30 nM by scintillation proximity assay. On the technique in general: Binding of GTPγS marks nucleotide exchange on a G protein.
Target sequence in this assay (P51681 whole entry, looked up): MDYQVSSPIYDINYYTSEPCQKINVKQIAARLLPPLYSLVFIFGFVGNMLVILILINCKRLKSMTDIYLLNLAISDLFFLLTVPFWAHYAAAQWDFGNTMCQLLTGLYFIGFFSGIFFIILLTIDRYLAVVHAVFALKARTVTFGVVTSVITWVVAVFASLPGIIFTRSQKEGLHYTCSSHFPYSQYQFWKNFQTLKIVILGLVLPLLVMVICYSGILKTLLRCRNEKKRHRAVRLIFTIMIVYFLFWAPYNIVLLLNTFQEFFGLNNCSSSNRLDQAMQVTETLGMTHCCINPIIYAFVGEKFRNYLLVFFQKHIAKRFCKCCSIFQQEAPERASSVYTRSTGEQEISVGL
Assay [2] concerns the target T1, C-C chemokine receptor type 5. Put plainly: Antagonist activity at CCR5 expressed in CHO cells assessed as inhibition of RANTES-stimulated GTPgammaS binding at 300 nM by scintillation proximity assay.
Target sequence in this assay (P51681 whole entry, looked up): as above
Assay [3] has the same target. Description: Antagonist activity at CCR5 expressed in CHO cells assessed as inhibition of RANTES-stimulated GTPgammaS binding by scintillation proximity assay. The class given is functional, cell-based.
Target sequence in this assay (P51681 whole entry): as the sequence (P51681 whole entry, looked up) above

Where only a bound is given, the exact number is not on record here.

Usually inhibition stands for how much of the control response was suppressed. Consider `COc1ccc(C(=O)NC2(C)CCN(CC[C@H](NC(=O)C3CCCCC3)c3cccc(F)c3)CC2)cc1`, for which the results for the inhibition in assay [1] and in assay [2] were 9% and 33%, respectively. The like results for `CC1(NC(=O)Cc2ccc(F)cc2)CCN(CC[C@H](NC(=O)C2CCCCC2)c2cccc(F)c2)CC1` were, in that order, 31% and 95%. A word on the IC50: it is the concentration needed to halve the response being measured. On to `Cc1nnc(C(C)C)n1[C@H]1C[C@H]2CC[C@@H](C1)N2CC[C@H](NC(=O)COc1ccccc1)c1ccc(C(F)(F)F)cc1`, for which the IC50 in assay [3] came out at 0.253 µM. Still for that read-out and setting: the same measure for `Cc1nc2cccnc2n1[C@H]1C[C@H]2CC[C@@H](C1)N2CC[C@H](NC(=O)c1ccc(F)cc1)c1cccc2ccccc12`: 10 µM.

On to `CC1(NC(=O)C2CCCCC2)CCN(CC[C@H](NC(=O)C2CCCCC2)c2cccc(F)c2)CC1`, for which the inhibition in assay [1] stood at 6%; in assay [2], 29%. Taken in the same sequence, the figures for `CC1(NC(=O)Cc2ccc(Cl)c(Cl)c2)CCN(CC[C@H](NC(=O)C2CCCCC2)c2cccc(F)c2)CC1` were 36% and 97%. For the compound `CC1(NC(=O)CC23CC4CC(CC(C4)C2)C3)CCN(CC[C@H](NC(=O)C2CCCCC2)c2cccc(F)c2)CC1`, the inhibition in assay [1] worked out at 21%; in assay [2], 46%. Regarding `CC1(NC(=O)Cc2ccc(Cl)cc2)CCN(CC[C@H](NC(=O)C2CCCCC2)c2cccc(F)c2)CC1`, the figures for the inhibition in assay [1] and in assay [2] were 28% and 91%, respectively. Take `COC(=O)C1(Cc2ccccc2)CCN(CC[C@H](NC(=O)C2CCC2)c2ccc(C(F)(F)F)cc2)CC1`: the concentration for half-maximal inhibition (IC50) in assay [3] was found to be 10 µM. Take `CC1(NC(=O)c2ccc(C(F)(F)F)cc2)CCN(CC[C@H](NC(=O)C2CCCCC2)c2cccc(F)c2)CC1`: the inhibition in assay [1] was 3%; in assay [2], 7%. For `COC(=O)C1(Cc2ccccc2)CCN(CC[C@H](NC(=O)C2CCC2)c2cccc3ccccc23)CC1`, the IC50 in assay [3] is more than 10 µM. Regarding `CC(C)N(Cc1ccccc1)c1ccc(N2CCN(CC[C@H](NC(=O)C3CCCCC3)c3ccc(C(F)(F)F)cc3)CC2)cc1`, the IC50 in assay [3] was more than 10 µM. The same measure, in the same setting: the same measure for `CC(=O)N(c1ccc(N2CCN(CC[C@H](NC(=O)C3CCCCC3)c3ccc(C(F)(F)F)cc3)CC2)cc1)C(C)C`: more than 10 µM.

On to `CC1(NC(=O)c2cccnc2)CCN(CC[C@H](NC(=O)C2CCCCC2)c2cccc(F)c2)CC1`, for which the figures for the inhibition in assay [1] and in assay [2] were 35% and 44%, respectively. As to `O=C(N[C@@H](CCN1CCC(CO)(Cc2ccccc2)CC1)c1ccc(C(F)(F)F)cc1)C1CCC1`, in assay [3], the IC50 was more than 10 µM.
